# From PMC12389591, “Syzygium oleosum (F.Muell.) B.Hyland (Myrtaceae), an Unexplored Australian Species: Anatomical and Micromorphological Study of Leafy Twigs, and Characterization and Biological Activity of Their Essential Oil” (Plants, 2025)
# pIC50: −log10 of the molar value. Like-named read-outs stand apart in the source and are kept apart here. Marks after values point to notes of the source that are not given here.
# Columns and labels:
# [1] = β-Carotene Bleaching test (BCB); conditions: n = 3; for BCB IC50 (95% confidence limits): pure compounds tested at the concentration naturally present within the EO, n.r. = IC50 not reached
# Experimental: (§1) The antioxidant and anti-inflammatory properties of S. oleosum and its major bioactive compounds were evaluated using different in vitro assays based on different mechanisms and reaction environments according to Smeriglio et al.. Results were expressed as the concentration required to inhibit 50% of the oxidative or inflammatory activity (IC50, µg/mL), with corresponding 95% confidence limits (C.L.) calculated using the Litchfield and Wilcoxon method with PHARM/PCS software (version 4; Consulting, Wynnewood, PA, USA).
# In brief, 200 µL of EO (0.094–1.5 mg/mL), its main bioactive compounds (0.0289–0.4619 mg/mL, 0.0251–0.4019 mg/mL, 0.010–0.1604 mg/mL, and 0.0092–0.1479 mg/mL for terpinolene, β-pinene, α-pinene, and γ-terpinene), butylated hydroxytoluene (BHT, 1 mg/mL), or blank (0.1% DMSO) was added to 5 mL of β-carotene emulsion, prepared from 250 µL of β-carotene in ethyl acetate (1 mg/mL), 4 µL linoleic acid, and 40 µL Tween-40. An emulsion lacking β-carotene served as negative control. The mixtures were incubated at 50 °C for 2 h, and absorbance at 470 nm was measured at 20 min intervals using the same instrument as in Section TEAC Assay.
# [2] = Iron-Chelating Activity assay (ICA); conditions: n = 3; for ICA IC50 (95% confidence limits): pure compounds tested at the concentration naturally present within the EO, n.r. = IC50 not reached
# Experimental: (§2) The antioxidant and anti-inflammatory properties of S. oleosum and its major bioactive compounds were evaluated using different in vitro assays based on different mechanisms and reaction environments according to Smeriglio et al..
# After 5 min at RT, 50 µL of ferrozine solution (5 mM) and deionized water were added to bring the total volume to 1.5 mL.
# [3] = Trolox Equivalent Antioxidant Capacity assay (TEAC); conditions: n = 3; for TEAC IC50 (95% confidence limits): pure compounds tested at the concentration naturally present within the EO, n.r. = IC50 not reached
# Experimental: as §1
# To generate the 2,2′-azino-bis (3-ethylbenzothiazoline-6-sulfonic acid) (ABTS) radical cation solution, ABTS^+ (1.7 mM) was incubated with potassium persulfate (4.3 mM) in a 1:5 (v/v) ratio in the dark at room temperature (RT) for 12 h. The resulting solution was diluted to achieve an absorbance of 0.7 ± 0.02 at 734 nm. For the assay, 10 µL of either EO (ranging from 0.313 to 5 mg/mL), its main bioactive compounds (0.096–1.54 mg/mL, 0.084–1.34 mg/mL, 0.033–0.535 mg/mL, and 0.031–0.493 mg/mL for terpinolene, β-pinene, α-pinene, and γ-terpinene) or Trolox (0.625–10 µg/mL) was added to 200 µL of the ABTS solution and incubated at RT for 6 min. The absorbance at 734 nm was measured using a Multiskan™ GO UV-Vis microplate reader (Thermo Scientific, Waltham, MA, USA).
# [4] = Ferric Reducing Antioxidant Power assay (FRAP); conditions: n = 3; for FRAP IC50 (95% confidence limits): pure compounds tested at the concentration naturally present within the EO, n.r. = IC50 not reached
# Experimental: as §1
# In this assay, 10 µL of EO (ranging from 0.313 to 5 mg/mL), its main bioactive compounds (0.096–1.54 mg/mL, 0.084–1.34 mg/mL, 0.033–0.535 mg/mL, and 0.031–0.493 mg/mL for terpinolene, β-pinene, α-pinene, and γ-terpinene) or Trolox (1.25–10 µg/mL) was mixed with 200 µL of FRAP reagent, pre-incubated at 37 °C. The reagent consisted of 10 mM 2,4,6-Tris (2-pyridyl)-s-triazine (TPTZ) in 40 mM HCl, 20 mM FeCl3·6H2O, and 300 mM acetate buffer (pH 3.6). The mixture was incubated for 4 min at RT in the dark before measuring absorbance at 593 nm with the same microplate reader used in Section TEAC Assay.
# [5] = Oxygen Radical Absorbance Capacity assay (ORAC); conditions: n = 3; for ORAC IC50 (95% confidence limits): pure compounds tested at the concentration naturally present within the EO, n.r. = IC50 not reached
# Experimental: as §1
# ORAC activity was evaluated by combining 20 µL EO (ranging from 0.003 to 0.05 mg/mL), its main bioactive compounds (0.0010–0.0154 mg/mL, 0.0008–0.0134 mg/mL, 0.0003–0.0053 mg/mL, and […] for terpinolene, β-pinene, α-pinene, and γ-terpinene) or Trolox (0.25–2 µg/mL) with 120 µL of fluorescein solution (117 nM). After a 15-min pre-incubation at 37 °C, 60 µL of freshly prepared 2,2′-azobis (2-amidinopropane) dihydrochloride (AAPH) solution (40 mM) was added to initiate peroxyl radical formation. Fluorescence decay was monitored every 30 s for 90 min using excitation at 485 nm and emission at 520 nm on a FLUOstar Omega microplate reader (BMG LABTECH, Ortenberg, Germany).
# BSA = BSA (Bos taurus, UniProt P02769); assay: Inhibition of protein denaturation (ADA); type: biochemical; conditions: for ADA IC50 (95% confidence limits): pure compounds tested at the concentration naturally present within the EO, n = 3, n.r. = IC50 not reached
# BSA, sequence (P02769 25-607): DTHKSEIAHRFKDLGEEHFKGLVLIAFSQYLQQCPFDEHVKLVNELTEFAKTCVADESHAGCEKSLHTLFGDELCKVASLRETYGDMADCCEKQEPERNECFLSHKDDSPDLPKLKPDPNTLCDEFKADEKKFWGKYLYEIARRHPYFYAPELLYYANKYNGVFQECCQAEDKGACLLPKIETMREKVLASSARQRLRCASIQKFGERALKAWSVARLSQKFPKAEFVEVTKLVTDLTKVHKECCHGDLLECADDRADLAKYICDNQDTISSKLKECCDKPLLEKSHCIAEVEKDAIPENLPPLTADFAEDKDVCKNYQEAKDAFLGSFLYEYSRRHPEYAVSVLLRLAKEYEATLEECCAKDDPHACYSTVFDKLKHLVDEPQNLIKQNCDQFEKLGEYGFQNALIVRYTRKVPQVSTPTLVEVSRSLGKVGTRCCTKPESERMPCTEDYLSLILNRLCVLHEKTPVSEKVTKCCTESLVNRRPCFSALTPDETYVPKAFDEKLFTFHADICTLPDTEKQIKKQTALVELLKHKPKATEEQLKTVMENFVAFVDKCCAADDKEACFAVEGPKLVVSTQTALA
# trypsin = target: T1, trypsin (Bos taurus, UniProt P00760); assay: Inhibition of protease activity (PIA); type: biochemical; conditions: pure compounds tested at the concentration naturally present within the EO, n = 3, n.r. = IC50 not reached
# T1 sequence (P00760 24-246): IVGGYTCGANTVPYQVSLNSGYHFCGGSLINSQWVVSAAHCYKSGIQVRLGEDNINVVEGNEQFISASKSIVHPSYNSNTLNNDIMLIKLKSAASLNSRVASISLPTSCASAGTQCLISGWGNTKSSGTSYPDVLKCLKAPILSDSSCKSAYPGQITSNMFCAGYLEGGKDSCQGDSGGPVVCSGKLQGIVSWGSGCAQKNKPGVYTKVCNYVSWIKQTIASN
# Experimental: as §2
# After a 20 min incubation at 37 °C, the reaction was halted with 400 µL of 2 M perchloric acid, followed by centrifugation at 3500 × g for 10 min.
# [6] = target: butyrylcholinesterase (BChE) (Equus caballus, UniProt P81908); assay: Cholinesterase inhibition, BChE; type: biochemical; conditions: pure compounds tested at the concentration naturally present in the EO, three experiments, n.r. = IC50 not reached
# butyrylcholinesterase (BChE), sequence (P81908 whole entry): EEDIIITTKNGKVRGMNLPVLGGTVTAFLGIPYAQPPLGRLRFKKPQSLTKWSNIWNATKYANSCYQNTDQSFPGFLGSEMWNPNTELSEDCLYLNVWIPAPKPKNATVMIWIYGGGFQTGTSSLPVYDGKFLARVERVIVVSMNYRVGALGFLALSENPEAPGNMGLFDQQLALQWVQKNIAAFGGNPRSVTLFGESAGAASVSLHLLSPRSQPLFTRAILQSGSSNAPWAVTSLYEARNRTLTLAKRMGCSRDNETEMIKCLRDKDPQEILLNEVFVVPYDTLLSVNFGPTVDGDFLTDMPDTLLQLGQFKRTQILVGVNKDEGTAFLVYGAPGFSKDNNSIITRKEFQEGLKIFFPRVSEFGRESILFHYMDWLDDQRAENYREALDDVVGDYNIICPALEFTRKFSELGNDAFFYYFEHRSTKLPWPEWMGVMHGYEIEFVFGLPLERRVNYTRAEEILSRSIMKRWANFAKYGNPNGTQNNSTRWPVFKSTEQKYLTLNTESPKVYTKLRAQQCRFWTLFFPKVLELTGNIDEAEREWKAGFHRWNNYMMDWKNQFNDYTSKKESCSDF
# Experimental: (§3) The cholinesterase inhibitory activity was evaluated according to the method described by Zheng and co-workers.
# [7] = target: acetylcholinesterase (AChE) (Electrophorus electricus, UniProt O42275); conditions: pure compounds tested at the concentration naturally present in the EO, three experiments, n.r. = IC50 not reached
# acetylcholinesterase (AChE), sequence (O42275 24-633): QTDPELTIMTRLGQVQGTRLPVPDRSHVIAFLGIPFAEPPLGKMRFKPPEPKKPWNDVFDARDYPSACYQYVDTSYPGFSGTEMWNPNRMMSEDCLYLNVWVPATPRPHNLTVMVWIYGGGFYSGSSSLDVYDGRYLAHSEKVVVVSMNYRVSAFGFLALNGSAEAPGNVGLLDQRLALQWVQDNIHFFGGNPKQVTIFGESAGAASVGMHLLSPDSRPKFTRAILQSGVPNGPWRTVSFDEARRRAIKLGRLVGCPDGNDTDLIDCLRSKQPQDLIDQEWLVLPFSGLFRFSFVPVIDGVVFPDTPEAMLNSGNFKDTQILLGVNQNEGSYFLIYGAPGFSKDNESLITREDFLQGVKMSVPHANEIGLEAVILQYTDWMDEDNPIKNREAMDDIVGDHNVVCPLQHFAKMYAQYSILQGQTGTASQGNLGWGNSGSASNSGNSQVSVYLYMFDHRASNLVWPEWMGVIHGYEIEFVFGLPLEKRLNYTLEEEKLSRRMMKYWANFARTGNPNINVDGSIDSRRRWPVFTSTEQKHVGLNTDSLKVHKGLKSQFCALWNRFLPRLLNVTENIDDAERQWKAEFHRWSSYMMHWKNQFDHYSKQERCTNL
# Experimental: as §3
Compound,TEAC IC50 (95% confidence limits) [3],FRAP IC50 (95% confidence limits) [4],ORAC IC50 (95% confidence limits) [5],BCB IC50 (95% confidence limits) [1],ICA IC50 (95% confidence limits) [2],pIC50 (BSA),PIA IC50 (95% confidence limits) (trypsin),BChE IC50 ± standard deviation [6],other results
"Cc1cc(C(C)(C)C)c(O)c(C(C)(C)C)c1 [BHT, butylated hydroxytoluene]",,,,,,,,,"BCB IC50 (95% confidence limits), reference standard ([1]; RS BHT): 0.35 (0.17–80.58) *** µg/mL"
O=C(O)CN(CCN(CC(=O)O)CC(=O)O)CC(=O)O [EDTA],,,,,,,,,"ICA IC50 (95% confidence limits), reference standard ([2]; RS EDTA): 5.72 (2.32–87.13) *** µg/mL"
CC1=CCC(=C(C)C)CC1 [Terpinolene],n.r.,n.r.,0.01 (0.00–0.04) mg/mL,0.21 (0.10–0.45) mg/mL,n.r.,2.63,did not reach the IC50 threshold,,TEAC IC50 (95% confidence limits) ([3]; listed as terpinolene): neither compound reached 50% inhibition; FRAP IC50 (95% confidence limits) ([4]; listed as terpinolene): neither compound reached 50% inhibition; ICA IC50 (95% confidence limits) ([2]; listed as terpinolene): no appreciable activity
Cc1c(C)c2c(c(C)c1O)CCC(C)(C(=O)O)O2 (centres unmarked) [trolox],,,,,,,,,"TEAC IC50 (95% confidence limits), reference standard ([3]; RS trolox): 3.78 (1.48–9.67) *** µg/mL; FRAP IC50 (95% confidence limits), reference standard ([4]; RS trolox): 3.72 (1.60–8.66) *** µg/mL; ORAC IC50 (95% confidence limits), reference standard ([5]; RS trolox): 0.68 (0.22–82.17) *** µg/mL"
CC1=CCC2CC1C2(C)C (stereo not drawn) [α-Pinene],n.r. ^b,n.r.,n.r.,inactive and n.r.,,,,n.r.,ADA IC50 (95% confidence limits) (BSA): n.r.; ADA IC50 (95% confidence limits) (BSA; listed as α-pinene): did not reach 50% inhibition; BChE IC50 ± standard deviation ([6]; listed as α-pinene): failed to reach the IC50 threshold
C=C1CCC2CC1C2(C)C (stereo not drawn) [β-Pinene],neither compound reached 50% inhibition and n.r.,neither compound reached 50% inhibition and n.r.,n.r.,n.r.,0.03 (0.01–0.13) mg/mL,2.58,did not reach the IC50 threshold and n.r.,n.r.,BCB IC50 (95% confidence limits) ([1]; listed as β-pinene): inactive; AChE IC50 ± standard deviation [7]: n.r.; AChE IC50 ± standard deviation ([7]; listed as β-pinene): did not achieve 50% inhibition; BChE IC50 ± standard deviation ([6]; listed as β-pinene): failed to reach the IC50 threshold
CC1=CCC(C(C)C)=CC1 [γ-Terpinene],n.r.,n.r.,n.r.,0.02 (0.02–0.03) mg/mL,no appreciable activity and n.r.,3.09,n.r.,n.r.,PIA IC50 (95% confidence limits) (trypsin; listed as γ-terpinene): did not reach the IC50 threshold; AChE IC50 ± standard deviation [7]: n.r.; AChE IC50 ± standard deviation ([7]; listed as γ-terpinene): did not achieve 50% inhibition; BChE IC50 ± standard deviation ([6]; listed as γ-terpinene): failed to reach the IC50 threshold
